Measured values taken from patent US9840506B2, “Crystal of doripenem, and preparation method therefor” (JW PHARMACEUTICAL CORPORATION, priority 2014, dated 2017).
In brackets after ≈: the same amount, converted by molar mass. Read-outs that look alike come from different tables or passages of the source.

Assays:
Assay type in all cases: physicochemical
[1] = Solubility of doripenem crystal in water
Experimental: The solubility of the Type VI doripenem anhydride crystal of Example 3 according to the present invention was measured and compared with that of the Type IV doripenem of Comparative Example 9.
50 mg of each of the Type VI doripenem anhydride crystal of Example 3 and the Type IV doripenem of Comparative Example 9 was added with water until the doripenem was completely dissolved, and the solubility thereof was measured. Meanwhile, 10 mL of water was added with the Type VI doripenem anhydride crystal of Example 3 and the Type IV doripenem of Comparative Example 9 until the doripenem was completely dissolved, and the solubility thereof was measured.

[2] = Stability: purity after standing at 60° C. for 3 weeks
Experimental: In addition, the Type VI doripenem anhydride crystal according to the present invention and the Type IV doripenem were allowed to stand at 60° C. for 3 weeks, and the purity thereof was measured to evaluate the stability.

[3] = Stability: max. amount of impurities after standing at 60±5° C. for 3 weeks
Experimental: In addition, the Type VII doripenem anhydride crystal of Example 7 according to the present invention and the Type IV doripenem of Comparative Example 9 were allowed to stand at 60±5° C. for 3 weeks, and the purity thereof was measured to evaluate the stability.

[4] = TGA loss
Experimental: Based on the results of TGA, about 4.8% loss occurred in the Type IV doripenem of Comparative Example 9 (FIG. 8) and about 0.46% loss occurred in the Type VI doripenem anhydride crystal of Example 3 according to the present invention (FIG. 7). This means that the novel doripenem crystal, prepared through the method of the present invention, is an anhydride. Furthermore, the water content of the doripenem anhydride crystal according to the present invention was measured and found to be less than about 2%.

[5] = DSC, decomposition temperature / stability at high temperature
Experimental: When the Type VI doripenem anhydride crystal of Example 3 according to the present invention and the conventional Type IV doripenem were analyzed through differential scanning calorimetry (DSC), the decomposition temperature of the Type VI doripenem anhydride crystal was higher than that of the Type IV doripenem (FIG. 6).
In addition, the decomposition temperature of the Type VII doripenem anhydride crystal of Example 7 according to the present invention was higher than that of the Type IV doripenem hydrate (FIG. 11).

[6] = Measurement of water content
Experimental: The doripenem anhydride crystals of Examples 3 and 7 according to the present invention and the Type IV doripenem hydrate of Comparative Example 9 were measured for water content.

[7] = 2 weeks, listed as Comp. Example 9
[8] = 3 weeks, listed as Comp. Example 9

## C[C@@H](O)[C@H]1C(=O)N2C(C(=O)O)=C(S[C@@H]3CN[C@H](CNS(N)(=O)=O)C3)[C@H](C)[C@H]12 [Comparative Example 9, doripenem]
[1]; at 22° C.
  solubility: 20 mg/mL (≈ 47.6 mM)
[2]; 1 week, listed as Comp. Example 9
  Purity (%): 99.0%
[2]; [7]
  Purity (%): 98.2%
[2]; [8]
  Purity (%): 97.3%
[2]; 3 weeks, listed as Type IV doripenem
  decrease of purity over time: 2.56%
[2]; Initial, listed as Comp. Example 9
  Purity (%): 99.8%
[3]; 1 week
  Max. Amount of impurities (%): 0.08%
[3]; [7]
  Max. Amount of impurities (%): 0.23%
[3]; 3 weeks
  increase of maximum amount of impurities over time: 0.22%
[3]; [8]
  Max. Amount of impurities (%): 0.28%
[3]; Initial
  Max. Amount of impurities (%): 0.06%
[4]
  loss in TGA: about 4.8%

## C[C@@H](O)[C@H]1C(=O)N2C(C(=O)O)=C(S[C@@H]3CN[C@H](CNS(N)(=O)=O)C3)[C@H](C)[C@H]12 [Example 3, doripenem]
[1]; 22 °C, thermodynamic from solid, at 20 to 25° C., read-out: solubility
  solubility: 55 to 65 mg/mL (≈ 131 to 155 mM)
[2]; 1 week
  Purity (%): 99.4%
[2]; 2 weeks
  Purity (%): 98.8%
[2]; 3 weeks
  Purity (%): 98.7%
  decrease of purity over time: less than 1%
[2]; Initial
  Purity (%): 99.6%
[5]
  stability at high temperature (DSC decomposition temperature) compared to Type IV doripenem hydrate: superior stability at high temperature
[6]; listed as Type VI doripenem anhydride crystal
  Water content: less than 2%
[4]
  loss in TGA: about 0.46%

## C[C@@H](O)[C@H]1C(=O)N2C(C(=O)O)=C(S[C@@H]3CN[C@H](CNS(N)(=O)=O)C3)[C@H](C)[C@H]12 [Example 7, doripenem]
[1]; 22 °C, thermodynamic from solid, measured in the same manner as for Example 3, read-out: solubility
  solubility: 30 to 35 mg/mL (≈ 71.3 to 83.2 mM)
[3]; 1 week
  Max. Amount of impurities (%): 0.08%
[3]; 2 weeks
  Max. Amount of impurities (%): 0.08%
[3]; 3 weeks
  Max. Amount of impurities (%): 0.08%
  increase of maximum amount of impurities over time: 0.02%
[3]; Initial
  Max. Amount of impurities (%): 0.06%
[5]
  stability at high temperature (DSC decomposition temperature) compared to Type IV doripenem hydrate: superior stability at high temperature
[6]; listed as Type VII doripenem anhydride crystal
  Water content: less than 2%
